Paper PMC4503722, “Novel Phenotypic Outcomes Identified for a Public Collection of Approved Drugs from a Publicly Accessible Panel of Assays” (PLoS ONE, 2015)
Where a name gives a salt, the structure may show the parent alone. Read-outs that look alike come from different tables or passages of the source. *1 amine or outer side, *2 acyl side, *3 side chain or, on linkers, in order; H or OH if unused. Where a SMILES comes first, the peptide text is derived from it. Bridges are numbered along the chain shown (N, C = ends). Roman numbers before positions name the chains, in order. [ ]: non-standard residue; d: D form. Actinocin(9to1) = Cc1c2oc3c(C)ccc(C(=O)[*:1])c3nc-2c(C(=O)[*:2])c(N)c1=O; NMeV = CN[C@H](C(=O)O)C(C)C; Sar = CNCC(=O)O

Tests used:
Experiment in all cases: cells
[1] = tested on: endothelial tube formation in co-cultures of ECFCs and ADSCs treated with VEGF; assay type: cell-based, human
[2] = tested on: nuclear β-catenin in C2C12 cells; assay type: cell-based
INS-1E cells = assay type: cell-based, rat
NCI-H716 cells = assay type: cell-based, Human
DLD-1 = assay type: cell-based
SW480 = assay type: cell-based
HCT116 = assay type: cell-based
[3] = tested on: HCT116 cells treated with a GSK3β inhibitor; assay type: cell-based
HeLa cells = assay type: cell-based; conditions: read-out: CellCycle G2/M
[4] = read-out: Basal_Viability ATP DLD-1
[5] = read-out: Basal_Viability ATP SW480
[6] = read-out: Basal_Viability ATP HCT116
[7] = read-out: GSK3b inh pretreated_Viability ATP HCT116
[8] = Homo sapiens, IC50 / EC50; endothelial tube area, ADSC/ECFC co-culture; read-out: Anti-Angiogenesis
[9] = Mus musculus, C2C12, IC50 / EC50, C2C12 beta-catenin translocation, read-out: Wnt Pathway
[10] = Rattus norvegicus; IC50 / EC50; INS-1E; read-out: Insulin Secretion
[11] = Homo sapiens; IC50 / EC50; NCI-H716; read-out: GLP 1 Secretion
[12] = Homo sapiens, DLD-1, basal; read-out: Basal_Viability ATP DLD-1
[13] = Homo sapiens, SW480, basal; read-out: Basal_Viability ATP SW480
[14] = Homo sapiens, HCT-116, basal; read-out: Basal_Viability ATP HCT116
[15] = Homo sapiens, HCT-116, GSK3b inhibitor pretreated, read-out: GSK3b inh pretreated_Viability ATP HCT116

Nc1cc(C(F)(F)F)ccc1S
IC50 ([1]; read-out: Anti-Angiogenesis): > 10 µM | EC50 ([2]; S2 Table, module primary assay, 20 / 20.1 codes per legend, read-out: Wnt Pathway): > 10 µM | EC50 (INS-1E cells; S2 Table; module primary assay; 20 / 20.1 codes per legend; read-out: Insulin Secretion): > 10 µM | EC50 (NCI-H716 cells; read-out: GLP 1 Secretion): 1.16 µM | IC50 (DLD-1; basal; DLD-1; read-out: Basal_Viability ATP DLD-1): > 20 µM | IC50 (SW480; basal; SW480; read-out: Basal_Viability ATP SW480): > 20 µM | IC50 (HCT116; basal; HCT116; read-out: Basal_Viability ATP HCT116): > 20 µM | IC50 ([3]; HCT116 pretreated with GSK3b inhibitor, read-out: GSK3b inh pretreated_Viability ATP HCT116): > 20 µM

COc1ccc(OC(=O)N(CC(=O)O)Cc2ccc(OCCc3nc(-c4ccccc4)oc3C)cc2)cc1
IC50 ([1]; read-out: Anti-Angiogenesis): > 10 µM | EC50 ([2]; read-out: Wnt Pathway): > 10 µM | EC50 (INS-1E cells; read-out: Insulin Secretion): > 10 µM | EC50 (NCI-H716 cells; read-out: GLP 1 Secretion): 1.54 µM | IC50 (DLD-1; [4]): 9.55 µM | IC50 (SW480; [5]): 6.23 µM | IC50 (HCT116; [6]): 7.65 µM | IC50 [3, 7]: 6.13 µM

CCOc1ccc2nc3cc(N)ccc3c(N)c2c1 [Acrinol]
IC50 ([1]; read-out: Anti-Angiogenesis): 4.94 µM | EC50 ([2]; read-out: Wnt Pathway): > 10 µM | EC50 (INS-1E cells; read-out: Insulin Secretion): > 10 µM | EC50 (NCI-H716 cells; read-out: GLP 1 Secretion): > 10 µM | EC50 (HeLa cells): > 10 µM | IC50 (DLD-1; [4]): > 20 µM | IC50 (SW480; [5]): 3.23 µM | IC50 (HCT116; [6]): 15.7 µM | IC50 [3, 7]: 5.92 µM

O=C1c2c(O)cccc2Cc2cccc(O)c21 [Anthralin]
IC50 ([1]; Homo sapiens; read-out: Anti-Angiogenesis): 0.604 µM | EC50 ([2]; Mus musculus, C2C12, S2 Table, module primary assay, 20 / 20.1 codes per legend, read-out: Wnt Pathway): > 10 µM | EC50 (INS-1E cells; Rattus norvegicus, INS-1E; read-out: Insulin Secretion): > 10 µM | EC50 (NCI-H716 cells; Homo sapiens, NCI-H716; read-out: GLP 1 Secretion): > 10 µM | EC50 (HeLa cells; Homo sapiens, HeLa, S2 Table, HeLa, 20 = no response at highest concentration): > 10 µM | IC50 (DLD-1; Homo sapiens, DLD-1, basal; DLD-1; read-out: Basal_Viability ATP DLD-1): 0.0667 µM | IC50 (SW480; Homo sapiens, SW480, basal; SW480; read-out: Basal_Viability ATP SW480): 1.57 µM | IC50 (HCT116; Homo sapiens, HCT-116, basal; HCT116; read-out: Basal_Viability ATP HCT116): 2.2 µM | IC50 ([3]; Homo sapiens, HCT-116, HCT116 pretreated with GSK3b inhibitor, read-out: GSK3b inh pretreated_Viability ATP HCT116): 16.3 µM

CC1=C(C(=O)OC(C)C)C(c2cccc([N+](=O)[O-])c2)C(C(=O)OC2CN(C(c3ccccc3)c3ccccc3)C2)=C(N)N1 (stereo not drawn) [Azelnidipine]
IC50 [1, 8]: 3.58 µM | EC50 [2, 9]: > 10 µM | EC50 (INS-1E cells; [10]): > 10 µM | EC50 (NCI-H716 cells; [11]): 1.23 µM | IC50 (DLD-1; [12]): 5.1 µM | IC50 (SW480; [13]): 3.84 µM | IC50 (HCT116; [14]): 3.69 µM | IC50 [3, 15]: 5.5 µM

O=c1[nH]c(=O)n([C@H]2C[C@H](O)[C@@H](CO)O2)cc1Br [Broxuridine]
IC50 [1, 8]: 3.85 µM | EC50 [2, 9]: > 10 µM | EC50 (INS-1E cells; [10]): > 10 µM | EC50 (NCI-H716 cells; [11]): > 10 µM | EC50 (HeLa cells; Homo sapiens, HeLa, IC50 / EC50, HeLa): > 10 µM | IC50 (DLD-1; [12]): > 20 µM | IC50 (SW480; [13]): > 20 µM | IC50 (HCT116; [14]): > 20 µM | IC50 [3, 15]: > 20 µM

C=CC(=O)Nc1cc2c(Nc3ccc(F)c(Cl)c3)ncnc2cc1OCCCN1CCOCC1 [Canertinib]
IC50 ([1]; Homo sapiens, read-out: Anti-Angiogenesis): > 10 µM | EC50 ([2]; Mus musculus, C2C12, read-out: Wnt Pathway): 1 µM | EC50 (INS-1E cells; Rattus norvegicus, INS-1E, read-out: Insulin Secretion): > 10 µM | EC50 (NCI-H716 cells; Homo sapiens, NCI-H716, read-out: GLP 1 Secretion): > 10 µM | EC50 (HeLa cells; Homo sapiens, HeLa): > 10 µM | IC50 (DLD-1; Homo sapiens, DLD-1, read-out: Basal_Viability ATP DLD-1): 0.841 µM | IC50 (SW480; Homo sapiens, SW480, read-out: Basal_Viability ATP SW480): 1.21 µM | IC50 (HCT116; Homo sapiens, HCT-116, read-out: Basal_Viability ATP HCT116): 3.71 µM | IC50 ([3]; Homo sapiens, HCT-116, read-out: GSK3b inh pretreated_Viability ATP HCT116): 3.51 µM

NC(=O)C1(N2CCCCC2)CCN(CCCN2c3ccccc3CCc3ccc(Cl)cc32)CC1 [Clocapramine]
IC50 [1, 8]: 3.4 µM | EC50 [2, 9]: > 20 µM | EC50 (INS-1E cells; [10]): 10.1 µM | EC50 (NCI-H716 cells; [11]): 18.3 µM | IC50 (DLD-1; [12]): 5.35 µM | IC50 (SW480; [13]): 3.69 µM | IC50 (HCT116; [14]): 3.41 µM | IC50 [3, 15]: 3.64 µM

Cc1c2oc3c(C)ccc(C(=O)N[C@@H]4C(=O)N[C@H](C(C)C)C(=O)N5CCC[C@H]5C(=O)N(C)CC(=O)N(C)[C@@H](C(C)C)C(=O)O[C@@H]4C)c3nc-2c(C(=O)N[C@@H]2C(=O)N[C@H](C(C)C)C(=O)N3CCC[C@H]3C(=O)N(C)CC(=O)N(C)[C@@H](C(C)C)C(=O)O[C@@H]2C)c(N)c1=O [Dactinomycin] (I: T[dV]P[Sar][NMeV] / II: T[dV]P[Sar][NMeV]; ester I:1-I:C, II:1-II:C; linker I:N-II:N via Actinocin(9to1))
IC50 [1, 8]: 0.001 µM | EC50 ([2]; Mus musculus, IC50 / EC50, C2C12 beta-catenin translocation, read-out: Wnt Pathway): 0.0015 µM | EC50 (INS-1E cells; [10]): > 10 µM | EC50 (NCI-H716 cells; [11]): > 10 µM | IC50 (DLD-1; Homo sapiens, DLD-1; read-out: Basal_Viability ATP DLD-1): 0.0667 µM | IC50 (SW480; Homo sapiens, SW480; read-out: Basal_Viability ATP SW480): 0.0667 µM | IC50 (HCT116; Homo sapiens, HCT-116; read-out: Basal_Viability ATP HCT116): 12.6 µM | IC50 [3, 15]: > 20 µM

O=C(O)c1ccccc1-c1c2cc(I)c(=O)c(I)c-2oc2c(I)c(O)c(I)cc12 [Erythrosin b]
IC50 ([1]; IC50 / EC50; endothelial tube area, ADSC/ECFC co-culture; read-out: Anti-Angiogenesis): > 10 µM | EC50 ([2]; IC50 / EC50, C2C12 beta-catenin translocation, read-out: Wnt Pathway): > 10 µM | EC50 (INS-1E cells; IC50 / EC50; INS-1E; read-out: Insulin Secretion): > 10 µM | EC50 (NCI-H716 cells; IC50 / EC50; NCI-H716; read-out: GLP 1 Secretion): 2.93 µM | IC50 (DLD-1; basal; read-out: Basal_Viability ATP DLD-1): > 20 µM | IC50 (SW480; basal; read-out: Basal_Viability ATP SW480): > 20 µM | IC50 (HCT116; basal; read-out: Basal_Viability ATP HCT116): > 20 µM | IC50 ([3]; GSK3b inhibitor pretreated, read-out: GSK3b inh pretreated_Viability ATP HCT116): > 20 µM

Oc1ccc2[nH]cc(CCCCN3CC=C(c4ccccc4)CC3)c2c1 [Roxindole hydrochloride]
IC50 ([1]; read-out: Anti-Angiogenesis): 4.04 µM | EC50 ([2]; read-out: Wnt Pathway): > 10 µM | EC50 (INS-1E cells; read-out: Insulin Secretion): > 10 µM | EC50 (NCI-H716 cells; read-out: GLP 1 Secretion): > 10 µM | IC50 (DLD-1; [4]): 4.54 µM | IC50 (SW480; [5]): 2.47 µM | IC50 (HCT116; [6]): 2.5 µM | IC50 [3, 7]: 3.32 µM

O=C1Nc2ccc(Cl)cc2[C@@](C#CC2CC2)(C(F)(F)F)O1 [efavirenz, reference compound]
IC50 [1, 8]: > 10 µM | EC50 [2, 9]: > 10 µM | EC50 (INS-1E cells; [10]): 3.87 µM | activity in the GLP-1 secretion assay (in words) (NCI-H716 cells): exhibited activity in the GLP-1 secretion assay | EC50 (NCI-H716 cells; [11]): 2.48 µM | IC50 (DLD-1; [12]): > 20 µM | IC50 (SW480; [13]): 4.61 µM | IC50 (HCT116; [14]): 6.17 µM | IC50 [3, 15]: 7.3 µM

CCC1=C(C)CN(C(=O)NCCc2ccc(S(=O)(=O)NC(=O)N[C@H]3CC[C@H](C)CC3)cc2)C1=O [glimepiride, reference compound]
IC50 ([1]; Homo sapiens, Table 2; primary assay tube area; 20 = no response in concentration-response, 20.1 = inactive in single concentration testing; read-out: Anti-Angio IC50): > 10 µM | EC50 ([2]; Mus musculus, C2C12, Table 2, C2C12, […], 20 / 20.1 coded, read-out: Wnt pot. EC50): > 10 µM | EC50 (INS-1E cells; Rattus norvegicus, INS-1E; read-out: Ins. sec. EC50): 0.004 µM | EC50 (INS-1E cells; [10]): 0.00406 µM | EC50 (INS-1E cells; Rattus norvegicus; INS-1E, 5 mM glucose; read-out: insulin secretion EC50): 0.0041 µM | EC50 (NCI-H716 cells; Homo sapiens, NCI-H716; read-out: GLP1 sec. EC50): > 10 µM | IC50 (DLD-1; Homo sapiens, DLD-1, 72 h, Table 2; 72 h, Cell TiterGlo, non-adherent; 20 coded; read-out: DLD-1 viab. IC50): > 20 µM | IC50 (SW480; Homo sapiens, SW480, 72 h, Table 2; 72 h, Cell TiterGlo, non-adherent; 20 coded; read-out: SW480 viab. IC50): > 20 µM | IC50 (HCT116; Homo sapiens, HCT-116, 72 h, read-out: HCT-116 viab. IC50, Table 2; basal; 72 h, Cell TiterGlo, non-adherent; 20 coded): > 20 µM | IC50 ([3]; Homo sapiens, HCT-116, read-out: HCT-116 (GSK3β) viab. IC50, Table 2, GSK3β inhibitor LY2090314 20 nM, 72 h, Cell TiterGlo, 20 coded): > 20 µM
